Measured values published in paper PMC9479156 (Frontiers in Pharmacology, 2022).
Where two headings read alike, the source gives them in different places.

Assays:
[1] = test system: Pf; set-up: method as in Lanfranchi et al., 2012; conditions: tritiated hypoxanthine assay; ref Lanfranchi et al., 2012; cited from earlier work
[2] = test system: chloroquine sensitive Pf NF54 strain; conditions: tritiated hypoxanthine assay; ref Figueiredo et al., 1998; Li et al., 2019; cited from earlier work
[3] = test system: multidrug resistant Pf K1 strain; conditions: tritiated hypoxanthine assay; ref Figueiredo et al., 1998; Li et al., 2019; cited from earlier work
[4] = test system: asexual blood stage P. falciparum NF54 (drug sensitive); set-up: method as in Coertzen et al., 2018; Wong et al., 2019; conditions: SYBR Green I, mean ± SEM, ref Coertzen et al., 2018, Wong et al., 2019; cited from earlier work
[5] = test system: asexual blood stage Pf NF54; assay: Fixed-ratio isobole drug combination assay (SYBR Green I); type: cell-based, Plasmodium falciparum
Method: The in vitro interactions of celastrol with artemisone and MB was determined using a fixed-ratio isobole analysis on Pf NF54 asexual parasites (SYBR Green I-based fluorescence). […] The fractional inhibitory concentration (FIC) for each drug in the combination was calculated as follows:
FIC = IC50 of drug A in combination with drug B/IC50 of drug A
The paired FIC values for the drugs in each combination were linearly plotted to provide the isobologram. The ΣFIC of FIC of drug A in combination with FIC of drug B was determined by calculating the mean FIC value, to obtain the representative FIC value for the drug combination. Data obtained were analysed in Excel, and sigmoidal dose-response curves and isobolograms were plotted using GraphPad 6.0. Experiments were performed in triplicate, and repeated 3 times.
As previously recorded for each of artemiside and artemisone in combination with MB ([Coertzen et al., 2018]), drug-drug interactions were monitored through evaluation of fractional inhibitory concentration (FIC) as determined by isobolograms. A mean ΣFIC<1.0 represents a synergistic interaction, >1.3 an antagonistic interaction and ΣFIC = 1 an indifferent or additive interaction. Isobologram analysis of the combinations of each of artemisone and MB in combination with celastrol was performed against the asexual stages of Pf NF54 using the SYBR Green I based assay. In Table 3 are shown the calculated FIC values for the independent combinations at each ratio as well as the ∑FIC values for each combination. In Figure 5 are presented the independent isoboles for each drug combination.

[6] = test system: asexual blood stage P. falciparum K1 (multidrug resistant); conditions: asexual blood stage, SYBR Green I, mean ± SEM; ref Coertzen et al., 2018; Wong et al., 2019; cited from earlier work
[7] = test system: asexual blood stage P. falciparum NF54 (drug sensitive); assay: SYBR Green I proliferation assay, asexual blood stage Pf NF54; type: cell-based; conditions: Plasmodium falciparum, NF54; asexual blood stage, SYBR Green I, 96 h, mean ± SEM; this study; read-out: IC50 NF54
Method: In vitro cultivation of asexual and gametocyte P. falciparum parasites: P. falciparum asexual blood stage parasites were cultivated in human erythrocytes in RPMI-1640 media supplemented with AlbuMax II under sterile conditions and in a hypoxic environment (90% N2, 5% CO2, and 5% O2) at 37°C as described previously ([Coertzen et al., 2018]; [Wong et al., 2019]). Gametocytes were produced from asexual blood stage parasites in a stage-specific manner through induction of cellular stress as described previously ([Reader et al., 2015]; [Coertzen et al., 2018]; [Wong et al., 2019]; [Reader et al., 2022]).
DHA, artesunate, artemether, chloroquine (CQ), and methylene blue (MB) were used as reference drugs. All assay conditions are as previously described ([Coertzen et al., 2018]; [Wong et al., 2019]). […] Dose-responses were determined using a 2-fold serial drug dilution on in vitro 95% ring-stage intraerythrocytic Pf parasites (1% parasitemia, 1% hematocrit) at 37°C under 90% N2, 5% CO2, and 5% O2 atmospheric conditions, detecting SYBR green I fluorescence as a marker for parasite proliferation following a 96 h drug treatment ([Smilkstein et al., 2004]; [Verlinden et al., 2011]). Activity against the Pf drug-sensitive NF54 strain and the multi drug-resistant K1 (resistant to CQ, quinine, pyrimethamine, and cycloguanil), and W2 (resistant to CQ, quinine, pyrimethamine, and cycloguanil) strains was evaluated. […] Data analysis was performed using GraphPad Prism (version 6) software, intra-assay variability was monitored with Z-factors, and acceptable inter-assay reproducibility was determined from the percent coefficient of variation (CV) ([Reader et al., 2015]). […]
Activity was determined using the SYBR Green I based fluorescence assay on asexual blood stages of the NF54 (drug sensitive), K1 and W2 (drug resistant) strains of P. falciparum. […] Also included in Table 1 for direct comparison of activities against celastrol are data for the internal reference standards MB and artemisone recorded at the same time as for celastrol. […]

[8] = test system: late stage IV-V P. falciparum NF54 gametocytes; set-up: method as in Coertzen et al., 2018, Wong et al., 2019; conditions: NF54 gametocytes, luciferase, 72 h, mean ± SEM; ref Coertzen et al., 2018, Wong et al., 2019; read-out: Late stage IV-V (luc 72 h) IC50; cited from earlier work
[9] = test system: immature stage II-III P. falciparum NF54 gametocytes; set-up: method as in Coertzen et al., 2018, Wong et al., 2019; conditions: NF54 gametocytes, luciferase, 48 h, mean ± SEM; ref Coertzen et al., 2018, Wong et al., 2019; read-out: Immature stage II-III (luc 48 h) IC50; cited from earlier work
[10] = test system: asexual blood stage P. falciparum W2 (multidrug resistant); set-up: method as in Coertzen et al., 2018; Wong et al., 2019; conditions: asexual blood stage, SYBR Green I, mean ± SEM; ref Coertzen et al., 2018; Wong et al., 2019; cited from earlier work

CC1=CC(=O)c2ccccc2C1=O [menadione]
IC50 [1]: 9600 to 12000 nM

COC(=O)[C@]1(C)CC[C@]2(C)CC[C@]3(C)C4=CC=C5C(=CC(=O)C(O)=C5C)[C@]4(C)CC[C@@]3(C)[C@@H]2C1 [Pristimerin, pristimerin, reference compound]
IC50 [2]: 583 nM | IC50 [3]: 409 nM

CN(C)c1ccc2nc3ccc(=[N+](C)C)cc-3sc2c1 [Methylene Blue, methylene blue, reference compound]
IC50 [4]: 5 nM | FIC ([5]; MB:celastrol drug ratio 20:80, Pf NF54): 0.70 | FIC ([5]; MB:celastrol drug ratio 40:60, Pf NF54): 0.67 | FIC ([5]; MB:celastrol drug ratio 60:40, Pf NF54): 0.66 | FIC ([5]; MB:celastrol drug ratio 80:20, Pf NF54): 0.79 | IC50 [6]: 6.45 ± 0.3 nM | IC50 [7]: 5.9 ± 0.8 nM | IC50 [8]: 143 ± 16.7 nM | IC50 [9]: 95 ± 11.3 nM | IC50 [10]: 5.13 ± 0.31 nM
